Data on 14 compounds can be found in patent US10562869B2, “Oxadiazole compounds” (REMYND NV, priority 2014, dated 2020).

A word on the EC50: it is the concentration at which the effect is half-maximal.

Molecules are shown by their SMILES.

The subject of this assay is M17_3SYN cells. In words: Paraquat-induced cytotoxicity (LDH) in α-synuclein over-expressing M17_3SYN neuroblastoma cells. Format: cell-based, human. The note with it: Homo sapiens, Neuroblastoma cell, 48 h, toxicity inhibition (LDH) in M17_3SYN cells challenged with 6 mM paraquat, 2 days; read-out: SYN EC50. The source says: A α-synuclein expression plasmid was constructed by subcloning the NcoI/XhoI fragment from 212T-SYN(WT) (Griffioen et al., Biochem Biophys Acta (2006) 1762(3):312-318) containing the cDNA of human wild type α-synuclein correspondingly into a standard mammalian expression vector pcDNA3.1 resulting in plasmid pcDNA3.1-SYNwt. Plasmids pcDNA3.1 and pcDNA3.1-SYNwt were transfected into human neuroblastoma cells (BE-M17; ATCC No. CRL-2267™) using lipofectamine reagent and subsequently, independent clonal cell lines with the plasmids stably integrated into the genome were selected by antibiotic resistance selection (Geneticin (G418)), resulting in cell lines M17.pcDNA3 and M17_3SYN. Overexpression of α-synuclein in the M17_3SYN cell line was confirmed by Western blot analysis.
Due to the high levels of α-synuclein, M17_3SYN cells were sensitive to paraquat, a well-known risk factor Parkinson's disease and of synuclein-dependent neuronal degeneration. Cytotoxicity of cells was measured by quantification of lactate dehydrogenase (LDH) levels. In dead cells, LDH leaked out of the cells into the medium due to a loss of plasma-membrane integrity.
[…], primary pre-cultures of M17.pcDNA3 (as possible control) and M17_3SYN cells were prepared, starting from a stock culture, at a density of 20.000-40.000 cells/cm2 in culture medium (Opti-MEM® Reduced Serum Medium with Phenol Red (Invitrogen, Cat. 31985-047) supplemented with 10% FCS, 1 mM sodium pyruvate, 1×NEAA, 500 μg/ml G418 and 0.5×antibiotic/antimycotic (ABAM)). 3 days later these primary pre-cultures were used as a starting point to make secondary pre-cultures at a density of 50.000-100.000 cells/cm^2. At the day of the experiment these secondary precultures were diluted to ˜0.5·10^6 cells/ml in detection medium (Opti-MEM® Reduced-Serum Medium without Phenol Red (Invitrogen, Cat. 11085-021) supplemented with 10% FCS, 1 mM sodium pyruvate, 1×NEAA, 500 μg/ml G418 and 0.5×ABAM) and 60 μL of this suspension was dispensed per well into a 96-well microtiter plate. After 3 hours of incubation at 37° C./5% CO2 an equal volume of detection medium containing a final concentration of 6 mM Paraquat was added and subsequently incubated for 2 days at 37° C./5% CO2. Then LDH activity was determined using the Promega Cytotox 96 Non-Radioactive cytotoxicity assay (Promega, Cat. G1780), according to the manufacturer's instructions. Cytotoxicity was defined as the ratio of LDH relative to the total LDH in the cells and supernatant.
The assay described above using the M17_3SYN cell line allowed screening compounds for their ability to decrease cytotoxicity in PQ-challenged cells. Compounds of the invention were tested for their ability to decrease toxicity at different concentrations, ranging from low non-effective concentrations to high effective concentrations. Afterwards, a dose-dependent inhibition curve was used to calculate the EC50. A compound was considered to be active in this test when it inhibited toxicity by more than 20% relative to untreated M17_3SYN cells at a concentration of 10 μM or lower.
For `O=c1[nH]c2cc(S(=O)(=O)N3CCN(c4nc(Cc5cccc(Cl)c5)no4)CC3)ccc2o1` [Cmpd077, 5-{4-[3-(3-Chloro-benzyl)-[1,2,4]oxadiazol-5-yl]-piperazine-1-sulfonyl}-3H-benzooxazol-2-one], the EC50 was 0.139 µM. Next, `CCOc1ccc(S(=O)(=O)N2CCN(c3nc(C4(c5ccc(Cl)cc5)CC4)no3)CC2)cc1` [Cmpd139, 1-{3-[1-(4-Chloro-phenyl)-cyclopropyl]-[1,2,4]oxadiazol-5-yl}-4-(4-ethoxy-benzenesulfonyl)-piperazine]: 0.356 µM. Take `CCC(c1ccccc1)c1noc(N2CCN(S(=O)(=O)c3ccc(OC)cc3)CC2)n1` (centres unmarked) [Cmpd044, 5-(4-((4-Methoxyphenyl)sulfonyl)piperazin-1-yl)-3-(1-phenylpropyl)-1,2,4-oxadiazole]: the EC50 stood at 0.015 µM. Next, `COc1ccc(S(=O)(=O)N2CCN(c3nc(CC4CC4)no3)CC2)cc1` [Cmpd159, 3-(Cyclopropylmethyl)-5-(4-((4-methoxyphenyl)sulfonyl)piperazin-1-yl)-1,2,4-oxadiazole]: 0.095 µM; `COc1ccc(S(=O)(=O)N2CCN(c3nc(Cc4ccc(F)c(F)c4)no3)CC2)cc1` [Cmpd099, 1-[3-(3,4-Difluoro-benzyl)-[1,2,4]oxadiazol-5-yl]-4-(4-methoxy-benzenesulfonyl)-piperazine]: 0.016 µM; `CCC(c1ccccc1)c1noc(N2CCN(S(=O)(=O)c3ccc(OC(F)F)cc3)CC2)n1` (centres unmarked) [Cmpd046, 1-(4-Difluoromethoxy-benzenesulfonyl)-4-[3-(1-phenyl-propyl)-[1,2,4]oxadiazol-5-yl]-piperazine]: 0.059 µM. The figure for `CCOc1ccc(S(=O)(=O)N2CCN(c3nc(Cc4cccc(Cl)c4)no3)CC2)cc1` [Cmpd073, 1-[3-(3-Chloro-benzyl)-[1,2,4]oxadiazol-5-yl]-4-(4-ethoxy-benzenesulfonyl)-piperazine] is 0.033 µM; for `O=S(=O)(c1ccc(OC(F)F)cc1)N1CCN(c2nc(C3(c4ccc(Cl)cc4)CC3)no2)CC1` [Cmpd140, 1-{3-[1-(4-Chloro-phenyl)-cyclopropyl]-[1,2,4]oxadiazol-5-yl}-4-(4-difluoromethoxy-benzenesulfonyl)-piperazine] it is 0.044 µM. Next, `COc1ccc(S(=O)(=O)N2CCN(c3nc(Cc4cccc(Cl)c4)no3)CC2)cc1` [Cmpd072, 1-[3-(3-Chloro-benzyl)-[1,2,4]oxadiazol-5-yl]-4-(4-methoxy-benzenesulfonyl)-piperazine]: 0.003 µM; `COc1ccc(S(=O)(=O)N2CCN(c3nc(COc4ccccc4)no3)CC2)cc1` [Cmpd202, 5-(4-((4-Methoxyphenyl)sulfonyl)piperazin-1-yl)-3-(phenoxymethyl)-1,2,4-oxadiazole]: 0.011 µM.

Turning to `O=S(=O)(c1ccc(OC(F)F)cc1)N1CCN(c2nc(Cc3cccc(F)c3)no2)CC1` [Cmpd092, 1-(4-Difluoromethoxy-benzenesulfonyl)-4-[3-(3-fluoro-benzyl)-[1,2,4]oxadiazol-5-yl]-piperazine], the EC50 amounted to 0.047 µM. Turning to `COc1ccc(S(=O)(=O)N2CCN(c3nc(C(C)(C)c4cccc(Cl)c4)no3)CC2)cc1` [Cmpd152, 1-{3-[1-(3-Chloro-phenyl)-1-methyl-ethyl]-[1,2,4]oxadiazol-5-yl}-4-(4-methoxy-benzenesulfonyl)-piperazine], the EC50 was 0.001 µM. Consider `O=S(=O)(c1ccc(OC(F)F)cc1)N1CCN(c2nc(CCC(F)(F)F)no2)CC1` [Cmpd173, 5-(4-((4-(Difluoromethoxy)phenyl)sulfonyl)piperazin-1-yl)-3-(3,3,3-trifluoropropyl)-1,2,4-oxadiazole], for which the EC50 amounted to 0.438 µM. Turning to `O=S(=O)(c1ccc2c(c1)CCO2)N1CCN(c2nc(Cc3cccc(F)c3)no2)CC1` [Cmpd095, 1-(2,3-Dihydro-benzofuran-5-sulfonyl)-4-[3-(3-fluoro-benzyl)-[1,2,4]oxadiazol-5-yl]-piperazine], the EC50 is 0.089 µM.
